Some results are limits rather than exact numbers.

The target in experiment [1] is T1, Gastrin/cholecystokinin type B receptor (Homo sapiens, UniProt P32239).
T1 sequence (P32239 whole entry): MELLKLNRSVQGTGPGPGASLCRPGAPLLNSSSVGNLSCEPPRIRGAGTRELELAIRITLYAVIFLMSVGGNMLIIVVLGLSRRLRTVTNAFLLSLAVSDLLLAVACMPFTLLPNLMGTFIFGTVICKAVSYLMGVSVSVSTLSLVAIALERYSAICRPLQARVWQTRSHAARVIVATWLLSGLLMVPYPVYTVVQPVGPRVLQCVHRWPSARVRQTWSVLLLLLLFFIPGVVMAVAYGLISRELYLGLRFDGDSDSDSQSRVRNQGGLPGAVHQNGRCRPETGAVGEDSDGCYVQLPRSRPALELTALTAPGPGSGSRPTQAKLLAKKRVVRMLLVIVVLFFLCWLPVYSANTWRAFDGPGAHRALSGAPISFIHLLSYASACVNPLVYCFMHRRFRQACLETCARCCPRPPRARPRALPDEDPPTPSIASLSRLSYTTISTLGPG

The target in the next experiment is Histamine H2 receptor (Homo sapiens, UniProt P25021). It is filed as functional, cell-based.
The target of experiment [2] is T2, Neuropeptide Y receptor type 1 (Homo sapiens, UniProt P25929).
T2 sequence (P25929 whole entry): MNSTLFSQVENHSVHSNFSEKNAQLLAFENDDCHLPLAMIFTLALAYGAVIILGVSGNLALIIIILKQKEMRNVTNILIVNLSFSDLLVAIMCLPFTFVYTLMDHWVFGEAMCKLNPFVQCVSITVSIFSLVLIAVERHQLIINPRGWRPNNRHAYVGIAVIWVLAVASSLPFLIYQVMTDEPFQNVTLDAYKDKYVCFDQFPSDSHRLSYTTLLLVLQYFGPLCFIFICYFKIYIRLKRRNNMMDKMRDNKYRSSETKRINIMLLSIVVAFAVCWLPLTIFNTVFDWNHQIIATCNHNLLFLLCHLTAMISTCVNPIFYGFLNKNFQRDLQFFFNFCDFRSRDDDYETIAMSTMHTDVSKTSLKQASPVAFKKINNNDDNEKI

Experiment [3] addresses Beta-2 adrenergic receptor (Homo sapiens, UniProt P07550).
A further experiment addresses Histamine H3 receptor (Homo sapiens, UniProt Q9Y5N1).
In experiment [4] the target is T3, Amine oxidase [flavin-containing] A (Homo sapiens, UniProt P21397).
T3 sequence (P21397 whole entry): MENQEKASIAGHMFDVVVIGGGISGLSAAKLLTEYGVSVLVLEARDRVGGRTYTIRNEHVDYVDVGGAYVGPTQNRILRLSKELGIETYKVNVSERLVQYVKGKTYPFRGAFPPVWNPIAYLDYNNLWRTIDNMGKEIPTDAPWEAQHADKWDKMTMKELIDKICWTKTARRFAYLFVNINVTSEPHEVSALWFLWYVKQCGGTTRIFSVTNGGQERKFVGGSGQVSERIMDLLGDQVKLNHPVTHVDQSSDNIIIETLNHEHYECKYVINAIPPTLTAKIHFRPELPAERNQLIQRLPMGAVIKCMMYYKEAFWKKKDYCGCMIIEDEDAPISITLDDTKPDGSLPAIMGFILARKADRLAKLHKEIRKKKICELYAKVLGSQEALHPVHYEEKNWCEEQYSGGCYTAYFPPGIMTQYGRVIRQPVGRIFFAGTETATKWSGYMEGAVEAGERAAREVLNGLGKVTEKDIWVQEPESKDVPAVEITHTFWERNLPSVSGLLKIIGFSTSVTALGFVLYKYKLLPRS
It is filed as functional.

The target of experiment [5] is T4, Alpha-1A adrenergic receptor (Homo sapiens, UniProt P35348).
T4 sequence (P35348 whole entry): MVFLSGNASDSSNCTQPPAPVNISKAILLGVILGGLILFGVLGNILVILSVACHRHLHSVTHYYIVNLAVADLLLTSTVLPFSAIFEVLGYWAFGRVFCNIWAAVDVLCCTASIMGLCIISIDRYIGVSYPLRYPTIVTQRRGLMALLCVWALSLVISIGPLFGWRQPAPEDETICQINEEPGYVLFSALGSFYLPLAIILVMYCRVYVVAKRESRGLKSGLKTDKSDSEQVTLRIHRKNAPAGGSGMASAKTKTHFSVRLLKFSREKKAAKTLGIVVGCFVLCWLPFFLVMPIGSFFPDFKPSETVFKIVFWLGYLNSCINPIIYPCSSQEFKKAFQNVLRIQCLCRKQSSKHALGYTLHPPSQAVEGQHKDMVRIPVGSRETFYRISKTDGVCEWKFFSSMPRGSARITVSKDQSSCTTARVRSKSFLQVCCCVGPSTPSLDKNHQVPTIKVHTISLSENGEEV
It is filed as functional, cell-based.

In experiment [6] the target is Prostaglandin G/H synthase 1 (Homo sapiens, UniProt P23219). The experiment is classed as functional.
Experiment [7] addresses cGMP-inhibited 3',5'-cyclic phosphodiesterase 3A (Homo sapiens, UniProt Q14432). It is filed as functional.
Experiment [8] addresses Vascular endothelial growth factor receptor 2 (Homo sapiens, UniProt P35968). It is filed as functional.
Also: assay procedure not described here.

Sequence of Beta-2 adrenergic receptor (P07550 whole entry): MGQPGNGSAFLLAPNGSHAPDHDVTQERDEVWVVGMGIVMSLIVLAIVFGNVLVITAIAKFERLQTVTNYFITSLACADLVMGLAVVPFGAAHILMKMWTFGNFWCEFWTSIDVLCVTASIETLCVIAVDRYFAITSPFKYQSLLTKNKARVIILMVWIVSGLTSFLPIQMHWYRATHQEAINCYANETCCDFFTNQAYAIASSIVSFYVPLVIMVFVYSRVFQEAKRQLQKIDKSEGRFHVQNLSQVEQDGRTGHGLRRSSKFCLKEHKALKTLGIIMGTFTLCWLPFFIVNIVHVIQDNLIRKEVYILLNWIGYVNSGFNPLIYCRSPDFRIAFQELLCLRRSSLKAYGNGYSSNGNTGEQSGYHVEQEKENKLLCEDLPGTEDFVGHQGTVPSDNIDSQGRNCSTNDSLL
Sequence of Histamine H2 receptor (P25021 whole entry): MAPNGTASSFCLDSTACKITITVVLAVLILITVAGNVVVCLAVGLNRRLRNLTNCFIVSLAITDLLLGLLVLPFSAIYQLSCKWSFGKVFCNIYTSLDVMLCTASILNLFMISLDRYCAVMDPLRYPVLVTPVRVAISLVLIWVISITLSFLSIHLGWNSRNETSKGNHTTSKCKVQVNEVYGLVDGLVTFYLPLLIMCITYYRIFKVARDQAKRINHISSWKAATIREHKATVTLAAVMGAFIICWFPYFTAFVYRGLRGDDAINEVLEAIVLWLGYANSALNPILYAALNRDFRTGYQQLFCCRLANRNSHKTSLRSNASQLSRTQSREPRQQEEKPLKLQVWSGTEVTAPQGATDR
Sequence of cGMP-inhibited 3',5'-cyclic phosphodiesterase 3A (Q14432 whole entry): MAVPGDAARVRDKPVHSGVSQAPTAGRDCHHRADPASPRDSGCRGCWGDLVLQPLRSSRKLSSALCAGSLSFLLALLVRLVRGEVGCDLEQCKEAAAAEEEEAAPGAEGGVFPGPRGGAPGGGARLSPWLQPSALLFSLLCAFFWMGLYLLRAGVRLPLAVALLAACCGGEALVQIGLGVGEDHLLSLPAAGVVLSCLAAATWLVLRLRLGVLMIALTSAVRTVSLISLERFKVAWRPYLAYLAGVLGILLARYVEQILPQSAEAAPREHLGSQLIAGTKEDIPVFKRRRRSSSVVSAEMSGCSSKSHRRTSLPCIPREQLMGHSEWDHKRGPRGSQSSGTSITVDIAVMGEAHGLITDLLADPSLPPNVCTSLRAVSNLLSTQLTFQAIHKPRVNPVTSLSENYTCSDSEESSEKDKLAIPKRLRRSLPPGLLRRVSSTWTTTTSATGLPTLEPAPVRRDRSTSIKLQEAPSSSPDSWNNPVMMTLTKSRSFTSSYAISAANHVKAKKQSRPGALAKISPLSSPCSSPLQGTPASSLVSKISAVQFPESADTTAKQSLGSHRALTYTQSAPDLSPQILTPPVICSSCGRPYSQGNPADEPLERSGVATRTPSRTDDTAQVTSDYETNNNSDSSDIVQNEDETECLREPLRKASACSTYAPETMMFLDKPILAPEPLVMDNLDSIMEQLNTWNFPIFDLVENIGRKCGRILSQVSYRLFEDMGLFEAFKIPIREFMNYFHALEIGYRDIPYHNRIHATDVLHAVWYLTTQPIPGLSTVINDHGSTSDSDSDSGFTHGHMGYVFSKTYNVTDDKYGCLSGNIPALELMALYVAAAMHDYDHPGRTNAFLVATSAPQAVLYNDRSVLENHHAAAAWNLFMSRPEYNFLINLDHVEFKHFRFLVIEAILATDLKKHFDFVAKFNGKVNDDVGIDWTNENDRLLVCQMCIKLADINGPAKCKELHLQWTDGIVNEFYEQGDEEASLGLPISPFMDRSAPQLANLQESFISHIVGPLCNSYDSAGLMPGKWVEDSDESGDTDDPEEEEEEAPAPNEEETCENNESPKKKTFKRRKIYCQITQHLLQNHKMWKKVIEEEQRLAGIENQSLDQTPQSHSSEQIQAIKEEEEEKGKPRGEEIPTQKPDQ
Sequence of Histamine H3 receptor (Q9Y5N1 whole entry): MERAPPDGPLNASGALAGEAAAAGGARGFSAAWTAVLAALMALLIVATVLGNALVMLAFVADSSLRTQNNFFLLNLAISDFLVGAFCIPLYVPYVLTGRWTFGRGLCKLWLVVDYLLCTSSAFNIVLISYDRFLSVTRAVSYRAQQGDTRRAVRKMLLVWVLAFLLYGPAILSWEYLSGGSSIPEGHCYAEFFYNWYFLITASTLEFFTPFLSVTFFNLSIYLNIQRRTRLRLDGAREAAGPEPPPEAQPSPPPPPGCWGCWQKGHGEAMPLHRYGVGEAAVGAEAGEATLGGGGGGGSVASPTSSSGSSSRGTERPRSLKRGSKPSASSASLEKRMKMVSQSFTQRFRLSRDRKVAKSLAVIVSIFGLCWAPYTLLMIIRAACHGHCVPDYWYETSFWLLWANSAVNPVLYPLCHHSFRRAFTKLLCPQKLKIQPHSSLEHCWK
Sequence of Prostaglandin G/H synthase 1 (P23219 whole entry): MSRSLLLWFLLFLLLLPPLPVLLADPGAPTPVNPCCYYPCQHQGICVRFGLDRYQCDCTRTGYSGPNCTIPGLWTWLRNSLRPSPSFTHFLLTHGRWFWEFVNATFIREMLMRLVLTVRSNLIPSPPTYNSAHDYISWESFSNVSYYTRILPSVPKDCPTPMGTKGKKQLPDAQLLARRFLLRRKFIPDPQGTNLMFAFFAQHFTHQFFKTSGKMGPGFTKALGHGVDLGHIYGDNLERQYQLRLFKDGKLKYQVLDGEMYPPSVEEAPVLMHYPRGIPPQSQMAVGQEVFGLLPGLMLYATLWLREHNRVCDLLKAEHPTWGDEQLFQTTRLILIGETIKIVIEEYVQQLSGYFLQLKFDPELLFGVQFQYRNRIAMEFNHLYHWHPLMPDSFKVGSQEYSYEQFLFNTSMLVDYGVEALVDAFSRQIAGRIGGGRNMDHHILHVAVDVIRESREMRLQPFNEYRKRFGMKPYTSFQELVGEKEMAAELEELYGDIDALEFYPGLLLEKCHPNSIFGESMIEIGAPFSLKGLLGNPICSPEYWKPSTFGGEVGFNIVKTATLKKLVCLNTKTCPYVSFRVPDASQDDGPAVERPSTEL
Sequence of Vascular endothelial growth factor receptor 2 (P35968 whole entry): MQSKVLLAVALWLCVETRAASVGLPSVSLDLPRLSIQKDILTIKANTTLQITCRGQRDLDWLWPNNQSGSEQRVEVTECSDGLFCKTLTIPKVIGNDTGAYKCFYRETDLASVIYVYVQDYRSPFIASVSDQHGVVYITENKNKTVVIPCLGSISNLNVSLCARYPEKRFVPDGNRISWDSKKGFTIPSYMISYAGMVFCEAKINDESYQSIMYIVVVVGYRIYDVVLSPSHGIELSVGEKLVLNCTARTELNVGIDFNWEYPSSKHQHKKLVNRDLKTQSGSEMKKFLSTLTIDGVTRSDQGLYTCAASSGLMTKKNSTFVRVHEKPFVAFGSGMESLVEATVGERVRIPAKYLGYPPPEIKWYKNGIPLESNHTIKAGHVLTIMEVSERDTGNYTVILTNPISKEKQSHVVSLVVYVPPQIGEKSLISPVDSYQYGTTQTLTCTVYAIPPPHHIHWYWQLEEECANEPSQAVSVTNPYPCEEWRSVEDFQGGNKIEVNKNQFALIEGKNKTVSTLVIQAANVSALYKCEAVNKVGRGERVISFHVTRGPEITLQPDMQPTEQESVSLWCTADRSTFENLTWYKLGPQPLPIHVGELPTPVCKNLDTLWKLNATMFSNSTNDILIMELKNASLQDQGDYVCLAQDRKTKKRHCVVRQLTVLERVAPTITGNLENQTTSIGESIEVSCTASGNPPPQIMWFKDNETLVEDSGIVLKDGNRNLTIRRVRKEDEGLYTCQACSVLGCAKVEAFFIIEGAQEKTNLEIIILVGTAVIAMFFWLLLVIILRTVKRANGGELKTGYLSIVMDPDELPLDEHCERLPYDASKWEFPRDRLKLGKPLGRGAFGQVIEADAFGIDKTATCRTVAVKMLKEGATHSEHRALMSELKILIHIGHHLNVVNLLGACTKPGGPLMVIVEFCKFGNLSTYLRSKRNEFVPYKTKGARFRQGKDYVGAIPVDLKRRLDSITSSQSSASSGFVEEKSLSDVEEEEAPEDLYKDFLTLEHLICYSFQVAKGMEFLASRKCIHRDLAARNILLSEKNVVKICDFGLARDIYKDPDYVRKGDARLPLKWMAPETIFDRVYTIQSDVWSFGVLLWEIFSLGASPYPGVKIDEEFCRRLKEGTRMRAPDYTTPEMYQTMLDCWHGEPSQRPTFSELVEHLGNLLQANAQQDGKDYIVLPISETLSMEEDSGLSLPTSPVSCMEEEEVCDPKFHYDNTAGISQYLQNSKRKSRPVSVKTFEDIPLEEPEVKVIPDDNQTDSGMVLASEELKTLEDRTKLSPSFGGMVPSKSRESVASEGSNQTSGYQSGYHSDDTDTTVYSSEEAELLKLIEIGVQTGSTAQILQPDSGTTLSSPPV

As for `C=CC1=C(C(=O)O)N2C(=O)[C@@H](NC(=O)/C(=N\O)c3csc(N)n3)[C@H]2SC1`, the half-maximal activity concentration (AC50) (commonly the midpoint of the concentration-response curve, whichever way the signal moves) in experiment [1] was greater than 30 µM; on Histamine H2 receptor, greater than 10 µM; in [2], greater than 30 µM; in experiment [3] it was greater than 30 µM.

In the case of `CN(C)CCOC(c1ccc(Cl)cc1)c1ccccn1` (stereo not drawn) [CARBINOXAMINE], the AC50 (in experiment [1]; on Histamine H2 receptor; in experiment [2]) was greater than 30 µM throughout.

With `COC(=O)CCc1ccc(OCC(O)CNC(C)C)cc1` (stereo not drawn) [ESMOLOL], the AC50 is greater than 30 µM in experiment [1], greater than 30 µM on Histamine H2 receptor, greater than 30 µM in [2] and 27 µM in experiment [3].

`CC(C)C[C@H](NC(=O)[C@H](Cc1ccccc1)NC(=O)c1cnccn1)B(O)O` [BORTEZOMIB]: the AC50 (in experiment [1]; at Histamine H2 receptor; in experiment [2]; in [3]) was greater than 30 µM each time.

For `O=NN(CCCl)C(=O)NC1CCCCC1` [LOMUSTINE], the AC50 was greater than 30 µM on Histamine H3 receptor; greater than 30 µM in experiment [4]; 14.1 µM in experiment [5]; greater than 30 µM in [6]; greater than 30 µM in experiment [7].

As to `CCN(CC)CCn1c(=O)c(Cc2ccc(OC)cc2)nc2ccccc21` [CAROVERINE], the AC50 (in [1]; on Histamine H2 receptor; in experiment [2]; in experiment [3]) was greater than 30 µM each time.

Regarding `O=c1[nH]cc(F)c(=O)[nH]1` [FLUOROURACIL], the AC50 (at Histamine H3 receptor; in experiment [1]; in experiment [2]; in [4]; in [5]; in experiment [6]) was greater than 30 µM each time. The same compound gave an AC50 in experiment [7] greater than 30 µM.

Regarding `NCCCCCC(=O)O` [AMINOCAPROIC ACID], the AC50 (on Histamine H2 receptor; in [2]; in experiment [3]) was greater than 10 µM throughout.

For `C[C@]12CCC(=O)C=C1CC[C@H]1[C@@H]3CC[C@](O)(C(=O)CO)[C@@]3(C)C[C@H](O)[C@@]12F` [FLUDROCORTISONE], the AC50 in experiment [1] is greater than 30 µM; at Histamine H2 receptor, greater than 10 µM; in [2], greater than 30 µM; in [3], greater than 10 µM.

Take `N[C@@H](Cc1cc(I)c(Oc2cc(I)c(O)c(I)c2)c(I)c1)C(=O)O` [LEVOTHYROXINE]: the half-maximal activity concentration (AC50) (in experiment [1]; on Histamine H2 receptor; in experiment [2]) was greater than 30 µM in each case.

In the case of `OCCOCCN1CCN(C(c2ccccc2)c2ccc(Cl)cc2)CC1` (stereo not drawn) [HYDROXYZINE], the AC50 was greater than 30 µM in experiment [1], greater than 10 µM on Histamine H2 receptor, greater than 30 µM in experiment [2] and greater than 10 µM in experiment [3].

As for `CC(=O)NC[C@H]1CN(c2ccc(N3CCOCC3)c(F)c2)C(=O)O1` [LINEZOLID], the concentration at half-maximal activity (AC50) (in experiment [1]; at Histamine H2 receptor; in experiment [2]) was greater than 30 µM in each case.

As for `CC(C)NCC(O)COc1ccc(CC(N)=O)cc1` (stereo not drawn) [ATENOLOL], the AC50 (in experiment [1]; on Histamine H2 receptor; in experiment [2]) was greater than 30 µM throughout.

Regarding `CNC1(C)C2CCC(C2)C1(C)C` (stereo not drawn) [MECAMYLAMINE], the AC50 (on Histamine H2 receptor; in [2]; in experiment [3]) was greater than 10 µM in each case.

In the case of `CC[N+](CC)(CCNC(=O)C(=O)NCC[N+](CC)(CC)Cc1ccccc1Cl)Cc1ccccc1Cl` [AMBENONIUM], the AC50 (in experiment [1]; on Histamine H2 receptor; in experiment [2]) was greater than 30 µM throughout.

As to `CC(=O)SCC(Cc1ccccc1)C(=O)NCC(=O)OCc1ccccc1` (stereo not drawn) [RACECADOTRIL], the AC50 is greater than 30 µM in experiment [1], greater than 30 µM at Histamine H2 receptor, greater than 30 µM in experiment [2] and greater than 10 µM in experiment [3].

As to `CCOc1ccccc1OCCN[C@H](C)Cc1ccc(OC)c(S(N)(=O)=O)c1` [TAMSULOSIN], the AC50 in experiment [1] is greater than 30 µM; at Histamine H2 receptor, greater than 10 µM; in [2], greater than 30 µM; in experiment [3], 2.2 µM.

Take `CS(=O)(=O)Nc1ccc([N+](=O)[O-])cc1Oc1ccccc1` [NIMESULIDE]: the AC50 (at Histamine H3 receptor; in [8]; in experiment [1]; at Histamine H2 receptor; in [2]; in experiment [4]) was greater than 30 µM each time. Also, the AC50 in experiment [5] and in experiment [7] was greater than 30 µM each time.

In the case of `NCCCNCCSP(=O)(O)O` [AMIFOSTINE], the concentration at half-maximal activity (AC50) (in [1]; at Histamine H2 receptor; in [2]; in [3]) was greater than 30 µM each time.

As for `CN(C)CCc1c[nH]c2ccc(CS(=O)(=O)N3CCCC3)cc12` [ALMOTRIPTAN], the AC50 (in [1]; on Histamine H2 receptor; in experiment [2]) was greater than 30 µM each time.

For the compound `CC(C)/N=c1\cc2n(-c3ccc(Cl)cc3)c3ccccc3nc-2cc1Nc1ccc(Cl)cc1` [CLOFAZIMINE], the concentration at half-maximal activity (AC50) (in experiment [1]; on Histamine H2 receptor; in [2]; in experiment [3]) was greater than 30 µM throughout.

For the compound `O=C(O)COC(=O)Cc1ccccc1Nc1c(Cl)cccc1Cl` [ACECLOFENAC], the AC50 in experiment [1] was greater than 30 µM; on Histamine H2 receptor, greater than 10 µM; in experiment [2], greater than 30 µM; in [3], greater than 10 µM.

Take `CCC1(c2ccccc2)C(=O)NCNC1=O` [PRIMIDONE]: the AC50 (on Histamine H2 receptor; in [2]; in experiment [3]) was greater than 10 µM each time.

As to `CCN(CCO)CCCC(C)Nc1ccnc2cc(Cl)ccc12` (stereo not drawn) [HYDROXYCHLOROQUINE], the AC50 (on Histamine H2 receptor; in experiment [2]; in [3]) was greater than 10 µM in each case.

Take `C[C@H](CS)C(=O)N1CCC[C@H]1C(=O)O` [CAPTOPRIL]: the AC50 in experiment [1] is greater than 30 µM; on Histamine H2 receptor, greater than 30 µM; in experiment [2], greater than 30 µM; in [3], greater than 10 µM.

Turning to `CCOC(=O)Nc1ccc(NCc2ccc(F)cc2)nc1N` [FLUPIRTINE], the AC50 (in experiment [1]; on Histamine H2 receptor; in [2]; in [3]) was greater than 30 µM in each case.

With `O=C(c1ccccc1)c1ccc2n1CCC2C(=O)O` (stereo not drawn) [KETOROLAC], the AC50 on Histamine H2 receptor is greater than 30 µM; in [2], greater than 10 µM; in [3], greater than 10 µM.

As for `C[C@H](Cn1cnc2c(N)ncnc21)OCP(=O)(O)O` [TENOFOVIR ANHYDROUS], the AC50 (in experiment [1]; at Histamine H2 receptor; in experiment [2]; in experiment [3]) was greater than 30 µM each time.

For the compound `Nc1nnc(-c2cccc(Cl)c2Cl)c(N)n1` [LAMOTRIGINE], the AC50 in experiment [1] is greater than 30 µM; on Histamine H2 receptor, greater than 10 µM; in experiment [2], greater than 30 µM; in experiment [3], greater than 10 µM.

These data come from ChEMBL document CHEMBL5291721, “A preclinical secondary pharmacology resource illuminates target-adverse drug reaction associations of marketed drugs” (Nat Commun, 2023).
